Measurements taken from patent US8338565B2, “Macrocyclic compounds for inhibition of tumor necrosis factor alpha” (Ensemble Therapeutics Corporation, priority 2008, dated 2012).
pIC50: −log10 of the molar value. Where two headings read alike, the source gives them in different places. Numbered stars: 1 amine (or outer) side, 2 acyl side, 3 side chain; on linkers, the order of the positions; unused ones are H or OH. Bridge positions count the residues as written; N and C are the ends. Square brackets hold non-standard residues; d marks the D form. Peptide text beside a SMILES is read from it. * marks the point of attachment. Bip = N[C@@H](Cc1ccc(-c2ccccc2)cc1)C(=O)O; dPhe(4-NH2) = Nc1ccc(C[C@@H](N)C(=O)O)cc1; Phe(4-NH2) = Nc1ccc(C[C@H](N)C(=O)O)cc1; d(hPhe) = N[C@H](CCc1ccccc1)C(=O)O; d2Thi = N[C@H](Cc1cccs1)C(=O)O; Suc = O=C(CCC(=O)[*:2])[*:1]; Boc = CC(C)(C)OC(=O)*

How the values were obtained:
[1] = target: T1, TNFα / TNFα receptor (TNFα R1/Fc) (Homo sapiens, UniProt P01375); test: Inhibition of binding of TNFα to the TNFα receptor (plate ELISA competition); settings: Table 2
T1 construct: purchased R&D Systems
T1 sequence (P01375 77-233 limits assumed, species assumed): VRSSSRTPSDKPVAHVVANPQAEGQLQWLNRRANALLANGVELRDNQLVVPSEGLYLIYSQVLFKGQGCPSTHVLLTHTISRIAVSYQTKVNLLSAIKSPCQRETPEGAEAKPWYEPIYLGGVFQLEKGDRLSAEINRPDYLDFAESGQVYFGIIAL
Outline: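 Compound dilutions were preincubated 30 min at RT with 8.33 nM TNFα R1/Fc in PBST with 2% DMSO, then added to wells coated with 15 nM TNFα for 30 min. Bound receptor was detected with HRP anti-human Fc and TMB, read as A450.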

[2] = tested on: TNF-α (degradation of IkB in HeLa cells or A431 cells); test: Human cell-based assay: inhibition of TNF-α induced degradation of IkB; settings: for inhibition at 10 µM: read-out: Inhibition at Various Compound Concentrations, 10 μM; for inhibition at 5 µM: read-out: Inhibition at Various Compound Concentrations, 5 μM; for inhibition at 25 µM: 25 μM compound, read-out: Inhibition at Various Compound Concentrations, 25 μM
[3] = read-out: Activity (IC50, inhibition of TNFα binding to TNFα R1/Fc)
[4] = 10 μM compound, HeLa or A431 cells
[5] = 5 μM compound, HeLa or A431 cells

pIC50 [1, 3]	SMILES	inhibition at 10 µM [2, 4] [%]	inhibition at 5 µM [2, 5] [%]	inhibition at 25 µM ([2]; HeLa or A431 cells) [%]	pIC50 ([1]; Activity (IC50, inhibition of TNFα binding to TNFα R1/Fc))	inhibition at 5 µM [2] [%]	inhibition at 10 µM [2] [%]
> 5.00	CC[C@H](C)[C@H](NC(=O)[C@@H]1Cc2ccc(cc2)OCC(=O)N[C@H](Cc2cccs2)C(=O)N[C@@H](Cc2ccc(-c3ccccc3)cc2)C(=O)N[C@H](CCc2ccccc2)C(=O)N1)C(=O)O [Compound 307]	< 10	–	–	–	–	–
> 5.00	O=C(O)CCCNC(=O)[C@@H]1Cc2ccc(cc2)OCC(=O)N[C@@H](Cc2cccs2)C(=O)N[C@H](Cc2ccc(-c3ccccc3)cc2)C(=O)N[C@@H](Cc2ccccc2)C(=O)N1 [Compound 386]	< 10	< 10	–	–	–	–
> 5.00	O=C1CCC(=O)N[C@H](CCc2ccccc2)C(=O)N[C@@H](Cc2ccc(-c3ccccc3)cc2)C(=O)N[C@H](Cc2ccccc2)C(=O)N[C@H](C(=O)O)Cc2ccc(cc2)N1 [Compound 117] ([d(hPhe)][Bip][dF][Phe(4-NH2)]-OH; linker N-4 via Suc)	50 to 80	< 10	–	–	–	–
4.52 to 5.00	CC(C)(C)OC(=O)NCCCC[C@H](NC(=O)[C@@H]1Cc2ccc(cc2)NC(=O)CCC(=O)N[C@H](Cc2cccs2)C(=O)N[C@@H](Cc2ccc(-c3ccccc3)cc2)C(=O)N[C@H](Cc2ccccc2)C(=O)N1)C(=O)O [Compound 35] ([d2Thi][Bip][dF][Phe(4-NH2)]K(Boc)-OH; linker N-4 via Suc)	–	–	50 to 80	–	–	–
–	O=C1COc2ccc(cc2)C[C@@H](C(=O)NC2(C(=O)O)CC2)NC(=O)[C@H](Cc2ccccc2)NC(=O)[C@@H](Cc2ccc(-c3ccccc3)cc2)NC(=O)[C@H](Cc2cccs2)N1 [Compound 391]	–	–	–	> 5.00	10 to 50	10 to 50
> 5.00	COC(=O)[C@H](CC(=O)O)NC(=O)[C@@H]1Cc2ccc(cc2)OCC(=O)N[C@@H](Cc2cccs2)C(=O)N[C@H](Cc2ccc(-c3ccccc3)cc2)C(=O)N[C@@H](Cc2ccccc2)C(=O)N1 [Compound 388]	10 to 50	< 10	–	–	–	–
> 5.00	O=C1COc2ccc(cc2)C[C@@H](C(=O)N[C@@H](Cc2ccc(O)cc2)C(=O)O)NC(=O)[C@H](Cc2ccccc2)NC(=O)[C@H](Cc2ccc(-c3ccccc3)cc2)NC(=O)[C@H](Cc2cccs2)N1 [Compound 343]	10 to 50	< 10	–	–	–	–
> 5.00	O=C1CCC(=O)N[C@H](Cc2cccs2)C(=O)N[C@@H](Cc2ccc(-c3ccccc3)cc2)C(=O)N[C@H](Cc2ccccc2)C(=O)N[C@@H](C(=O)O)Cc2ccc(cc2)N1 [Compound 196] ([d2Thi][Bip][dF][dPhe(4-NH2)]-OH; linker N-4 via Suc)	–	–	< 10	–	–	–
